According to ChEMBL document CHEMBL1148822, “Principal component analysis differentiates the receptor binding profiles of three antipsychotic drug candidates from current antipsychotic drugs” (J Med Chem, 2007):
The source made the active and inactive calls.

Assays:
[1] = molecular target: 5-hydroxytryptamine receptor 2B (Homo sapiens, UniProt P41595); settings: CHO
Description: Displacement of [3H]LSD from 5HT2B receptor expressed in CHO cells

[2] = molecular target: T1, 5-hydroxytryptamine receptor 2C (Homo sapiens) (UniProt P28335); settings: CHO
T1 sequence (whole entry): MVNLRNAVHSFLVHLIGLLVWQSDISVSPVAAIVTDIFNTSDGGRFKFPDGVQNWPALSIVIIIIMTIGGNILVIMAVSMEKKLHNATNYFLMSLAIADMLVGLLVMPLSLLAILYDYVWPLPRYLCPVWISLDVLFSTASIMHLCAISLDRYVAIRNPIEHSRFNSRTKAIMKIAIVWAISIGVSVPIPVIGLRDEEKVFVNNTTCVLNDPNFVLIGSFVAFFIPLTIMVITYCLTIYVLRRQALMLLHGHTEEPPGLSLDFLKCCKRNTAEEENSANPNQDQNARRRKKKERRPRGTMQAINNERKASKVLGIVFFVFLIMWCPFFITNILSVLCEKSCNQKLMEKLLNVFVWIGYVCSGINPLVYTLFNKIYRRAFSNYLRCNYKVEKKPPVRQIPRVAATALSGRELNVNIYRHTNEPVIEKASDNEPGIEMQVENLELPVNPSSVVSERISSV
Description: Displacement of [3H]mesulergine from 5HT2C receptor expressed in CHO cells

[3] = molecular target: 5-hydroxytryptamine receptor 6 (Homo sapiens, UniProt P50406); settings: HEK293
Sequence of 5-hydroxytryptamine receptor 6 (P50406 whole entry): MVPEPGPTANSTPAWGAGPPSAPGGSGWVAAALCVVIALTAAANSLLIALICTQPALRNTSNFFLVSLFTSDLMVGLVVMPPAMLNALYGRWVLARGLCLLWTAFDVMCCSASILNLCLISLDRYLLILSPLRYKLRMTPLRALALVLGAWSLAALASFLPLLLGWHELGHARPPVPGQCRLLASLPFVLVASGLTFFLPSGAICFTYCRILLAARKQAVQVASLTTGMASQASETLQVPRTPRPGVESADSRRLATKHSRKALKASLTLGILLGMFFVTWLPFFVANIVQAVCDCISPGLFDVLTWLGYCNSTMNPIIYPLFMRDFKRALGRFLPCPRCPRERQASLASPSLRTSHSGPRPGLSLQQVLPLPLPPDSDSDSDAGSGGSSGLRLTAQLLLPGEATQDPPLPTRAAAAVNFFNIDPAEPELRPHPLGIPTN
Description: Displacement of [3H]LSD from human 5HT6 receptor expressed in HEK293 cells

Measured: Activity

Sequence of 5-hydroxytryptamine receptor 2B (P41595 whole entry): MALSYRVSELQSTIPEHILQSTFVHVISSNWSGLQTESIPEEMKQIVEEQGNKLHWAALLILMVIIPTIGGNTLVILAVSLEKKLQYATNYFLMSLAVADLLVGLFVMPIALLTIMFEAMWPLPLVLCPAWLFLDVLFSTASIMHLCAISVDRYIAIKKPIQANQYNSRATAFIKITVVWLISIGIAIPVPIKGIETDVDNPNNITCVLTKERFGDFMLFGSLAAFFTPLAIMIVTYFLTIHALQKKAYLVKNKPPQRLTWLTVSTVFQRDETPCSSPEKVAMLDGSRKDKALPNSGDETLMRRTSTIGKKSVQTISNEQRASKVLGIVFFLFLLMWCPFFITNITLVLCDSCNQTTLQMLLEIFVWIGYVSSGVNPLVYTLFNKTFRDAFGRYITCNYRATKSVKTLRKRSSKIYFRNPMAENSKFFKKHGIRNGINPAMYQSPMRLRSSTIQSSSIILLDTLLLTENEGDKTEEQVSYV

O=C(CCCN1CCC(O)(c2ccc(Cl)cc2)CC1)c1ccc(F)cc1
inactive: all assays above
